Measurements: patent publication US20250034171A1, “IMIDAZOPYRIDINE AMIDES AND RELATED COMPOUNDS FOR USE IN THE TREATMENT OF BACTERIAL INFECTIONS” (priority 2021, published 2025)
Converted amounts (≈) assume the structure as drawn. Where two headings read alike, the source gives them in different places.

Key:
[1] = HTChem stab assay (chemical stability in buffer pH2, pH4 and pH7 vs DMSO reference); type: physicochemical; settings: 72 h, 50 µM; for Chemical stability data, Buffer pH2: pH 2; for Chemical stability data, Buffer pH4: pH 4; for Chemical stability data, Buffer pH7: pH 7
How it was run: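 Compound from 10 mM DMSO stock shaken 72 h at room temperature in Buffer/DMSO (2:1) at pH2 (0.1N HCl), pH4 or pH7 (phosphate), alongside a DMSO control. Samples analysed by LC/UV/MS against the DMSO reference; degradant peaks identified by MS and sample purity reported.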

[2] = system: Mycobacterium tuberculosis strain H37Rv; experiment: Test 2: MIC determination against M. tuberculosis, resazurin fluorescence; type: cell-based; settings: Test 2, M. tuberculosis H37Rv; for MIC90 / IC50: Mycobacterium tuberculosis, H37RV; for MIC90: read-out: Bacterial activity MIC90; for IC50: read-out: Bacterial activity pMIC50 (converted)
[3] = Metabolic stability in liver microsomes (intrinsic clearance); type: in vitro ADME
How it was run: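 Compound (typically 1 μM) incubated at 37° C with liver microsomes (0.5 mg/ml protein) of selected species, 1 mM NADPH, 1 mM MgCl2, 0.1 M phosphate pH 7.4, sampled 0–60 min. Parent remaining measured by LC-MS/MS; t1/2 from log-linear slope, then Clint in μl/min/mg protein.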

[4] = system: Salmonella typhimurium Ames II Mixed Strains (TA7001-TA7006) and TA98; experiment: Genotoxicity assay (AmesIIb mutagenicity test); type: cell-based; settings: Salmonella typhimurium; also: key: an AmesIIb score of 1 shows no genotoxicity signals
Excerpt: The aim is to evaluate compounds (and/or their metabolites) for their ability to induce reverse mutations in a gene of histidine-requiring Salmonella typhimurium strains to produce histidine-independent strains of these bacteria, in the absence and in the presence of a mammalian metabolic activation system.
Point mutations were made in the histidine (His) operon in Salmonella typhimurium, rendering the bacteria incapable of producing histidine. These single base substitutions are positioned at strategic points within the His gene, resulting in his-organisms that cannot grow unless histidine is supplied. When a mutagenic event occurs, base substitutions within the His gene then cause the reversion of the his-Ames II™ strains to His.
A chemical's mutagenic potential is assessed by exposing these his-organisms to varying concentrations of chemical and selecting for the reversion event. Medium lacking histidine is used for this selection which allows only those cells that have undergone the his- to His reversion to survive and grow.
The assay may be performed using a kit and instructions from Xenometric. The two strains provided in the Xenometric kit are the Ames II™ Mixed Strains and TA98. The Ames II™ Mixed Strains contains an equimolar mixture of the Ames II™ TA7001-TA7006 strains. Individually, these strains are designed to revert by only one specific base-pair substitution out of six possible changes. Thus, when mixed, all six base substitution mutations can be represented in one culture. This kit also contains TA98 for the detection of frameshift mutations.

[5] = mouse, microsomes, pH 7.4, Metabolic Stability Half life (mouse, min.)
[6] = mouse, microsomes, pH 7.4, mouse liver microsomes, read-out: Metabolic Stability (liver microsome intrinsic clearance) Clearance (mouse, μl/min./mg protein)
[7] = human, microsomes, pH 7.4, Metabolic Stability Half life (human, min.)
[8] = human, microsomes, pH 7.4, human liver microsomes, read-out: Metabolic Stability (liver microsome intrinsic clearance) Clearance (human, μl/min./mg protein)

| Compound | Chemical stability data, Vehicle DMSO [1] | Chemical stability data, Buffer pH2 [1] | Chemical stability data, Buffer pH4 [1] | Chemical stability data, Buffer pH7 [1] | MIC90 [2] | IC50 [2] | half-life at 1 µM [3, 5] | microsomal CLint at 1 µM [3, 6] | GeneTox AmesIIb Score [4] | Bacterial activity pMIC50 [2] | Metabolic Stability (liver microsome intrinsic clearance) Clearance (mouse, μl/min./mg protein) ([3]; mouse liver microsomes) | Metabolic Stability Half life (mouse, min.) ([3]; mouse, microsomes, 1 µM, pH 7.4) | half-life at 1 µM [3, 7] | microsomal CLint at 1 µM [3, 8] |
| --- | --- | --- | --- | --- | --- | --- | --- | --- | --- | --- | --- | --- | --- | --- |
| CCc1nc2nc(C)ccn2c1C(=O)NCc1ccc(-c2nc3n(n2)CCC(C(F)(F)F)C3)cc1 (single isomer, unassigned) [Compound 5a] | 100% | 100% | 100% | 100% | 0.06 µM (≈ 0.029 µg/mL) | 21600 pM | > 3 h | < 7.7 µL/min/mg | 1 | – | – | – | – | – |
| CCc1nc2ncc(Cl)cn2c1C(=O)NCc1ccc(-c2nc3n(n2)CCC(C(F)(F)F)C3)cc1 (single isomer, unassigned) [Compound 10a] | 100% | 84% | 76% | 97% | – | – | > 3 h | < 7.7 µL/min/mg | 1 | <6.301 | – | – | – | – |
| CCc1nc2ncc(Cl)cn2c1C(=O)NCc1ccc(-c2nc3n(n2)CCC(C(F)(F)F)C3)cc1 (single isomer, unassigned) [Compound 10b] | 96% | 81% | 71% | 92% | 0.021 µM (≈ 0.0106 µg/mL) | – | – | – | 1 | 8.207 | 11.1 μl/min./mg protein | 2.08 h | – | – |
| CCc1nc2ncc(C)cn2c1C(=O)NCc1ccc(-c2nc3n(n2)CCC(C(F)(F)F)C3)cc1 (stereo not shown) [Compound 1ab] | 100% | 100% | 100% | 100% | 0.028 µM (≈ 0.0135 µg/mL) | 9550 pM | > 3 h | < 7.7 µL/min/mg | 1 | – | – | – | > 3 h | < 7.7 µL/min/mg |
| CCc1nc2ncc(C)cn2c1C(=O)NCc1ccc(-c2nc3n(n2)CCC(C)C3)cc1 (stereo not shown) [Compound 4ab] | 98% | 98% | 98% | 98% | 0.017 µM (≈ 0.0073 µg/mL) | 7050 pM | 2.75 h | 8.38 µL/min/mg | 1 | – | – | – | – | – |
| CCc1nc2nc(C)ccn2c1C(=O)NCc1ccc(-c2nc3n(n2)CCC(C(F)(F)F)C3)cc1 (stereo not shown) [Compound 5ab] | 94% | 95% | 96% | 96% | 0.023 µM (≈ 0.0111 µg/mL) | 8280 pM | > 3 h | < 7.7 µL/min/mg | 1 | – | – | – | – | – |
| CCc1nc2ncc(OC)cn2c1C(=O)NCc1ccc(-c2nc3n(n2)CCC(C(F)(F)F)C3)cc1 (stereo not shown) [Compound 6ab] | 93% | 100% | 100% | 100% | 0.007 µM (≈ 0.0035 µg/mL) | 3480 pM | 1.62 h | 14.2 µL/min/mg | 1 | – | – | – | – | – |
| CCc1nc2nc(C)c(C)cn2c1C(=O)NCc1ccc(-c2nc3n(n2)CCC(C(F)(F)F)C3)cc1 (stereo not shown) [Compound 9ab] | 100% | 100% | 100% | 100% | 0.011 µM (≈ 0.00547 µg/mL) | 4940 pM | 1.66 h | 13.9 µL/min/mg | 1 | – | – | – | – | – |
| CCc1nc2ncc(Cl)cn2c1C(=O)NCc1ccc(-c2nc3n(n2)CCC(C(F)(F)F)C3)cc1 (stereo not shown) [Compound 10ab] | 90% | 72% | 64% | 90% | 0.016 µM (≈ 0.00806 µg/mL) | 5500 pM | > 3 h | < 7.7 µL/min/mg | 1 | – | – | – | – | – |
| CCc1nc2nc(N)c(C)cn2c1C(=O)NCc1ccc(-c2nc3n(n2)CCC(C(F)(F)F)C3)cc1 (stereo not shown) [Compound 12ab] | 99% | 100% | 100% | 100% | 0.064 µM (≈ 0.0319 µg/mL) | 23400 pM | > 3 h | < 7.7 µL/min/mg | 1 | – | – | – | > 3 h | < 7.7 µL/min/mg |
| CCc1nc2ncc(C)cn2c1C(=O)NCc1ccc(-c2cc3n(n2)CCC(C(F)(F)F)C3)cc1 (stereo not shown) [Compound 20ab] | 100% | 100% | 100% | 100% | 0.003 µM (≈ 0.00145 µg/mL) | 931 pM | 1.08 h | 21.3 µL/min/mg | 1 | – | – | – | 0.637 h | 36.3 µL/min/mg |
| CCc1nc2ncc(C)cn2c1C(=O)NCc1ccc(-c2nc3n(n2)CCC(C(F)(F)F)C3)c(F)c1 (stereo not shown) [Compound 22ab] | 98% | 97% | 97% | 98% | 0.007 µM (≈ 0.00351 µg/mL) | 2290 pM | 1.78 h | 13 µL/min/mg | 1 | – | – | – | – | – |
| CCc1nc2ncc(C)cn2c1C(=O)NCc1ccc(-c2nc3n(n2)CCC(C(F)(F)F)C3)c(C)c1 (stereo not shown) [Compound 23ab] | 100% | 100% | 100% | 100% | 0.022 µM (≈ 0.0109 µg/mL) | 8300 pM | 1.58 h | 14.6 µL/min/mg | 1 | – | – | – | – | – |
| CCc1nc2ncc(C)cn2c1C(=O)NCc1ccc(-c2nc3n(n2)CC(C(F)(F)F)CC3)cc1 (stereo not shown) [Compound 24ab] | 100% | 100% | 100% | 100% | 0.008 µM (≈ 0.00387 µg/mL) | 3380 pM | > 3 h | < 7.7 µL/min/mg | 1 | – | – | – | – | – |
| CCc1nc2ncc(C)cn2c1C(=O)NCc1ccc(-c2nc3n(n2)CCC(C(F)F)C3)cc1 (stereo not shown) [Compound 25ab] | 100% | 100% | 100% | 100% | 0.014 µM (≈ 0.00652 µg/mL) | 7460 pM | 2.32 h | 9.97 µL/min/mg | 1 | – | – | – | – | – |
| CCc1nc2ncc(C)cn2c1C(=O)NCc1ccc(-c2nc3n(n2)CCC(OC)C3)cc1 (stereo not shown) [Compound 26ab] | 95% | 95% | 95% | 95% | 0.143 µM (≈ 0.0637 µg/mL) | 49400 pM | 2.12 h | 10.9 µL/min/mg | 1 | – | – | – | – | – |
| CCc1nc2ncc(C)cn2c1C(=O)NCc1ccc(-c2nc3n(n2)CCC(O)C3)cc1 (stereo not shown) [Compound 29ab] | 100% | 100% | 100% | 100% | 3.19 µM (≈ 1.38 µg/mL) | > 500000 pM | > 3 h | < 7.7 µL/min/mg | 1 | – | – | – | > 3 h | < 7.7 µL/min/mg |
| CCc1nc2ncc(C)cn2c1C(=O)NCc1ccc(-c2nc3n(n2)CCC(OCCOC)C3)cc1 (stereo not shown) [Compound 30ab] | 98% | 98% | 98% | 98% | 0.332 µM (≈ 0.163 µg/mL) | 109000 pM | 2.55 h | 9.08 µL/min/mg | 1 | – | – | – | – | – |
